From patent US20070190628A1, “Yeast food composition for fuel ethanol production” (priority 2006, published 2007)

Tested on: active dry yeast “z”
Assay: Fermentation of normal gravity corn mash with nutrient supplements (Example 4)
Type: cell-based, Saccharomyces cerevisiae
Experimental: The effects of the optimized defined urea plus salts-based nutrient supplement, i.e., defined yeast food, developed in Example 3 for corn mash fermentations, were assessed by comparisons of fermentation rates and ethanol production in normal gravity corn mashes and very high gravity corn mashes that were (a) supplemented with 16 mM urea only, or (b) yeast extract, or (c) supplemented with 16 mM urea plus the defined yeast food from Example 3 which in this set of studies, contained 1.6 g/L (NH4)2HPO4, 0.32 g/L (NH4)2SO4, 0.049 g/L MgSO4.7H2O, and 0.273 mg/L ZnSO4.7H2O.
Normal density corn mashes were prepared as described in Example 1 and were determined to contain about 18-20 g dissolved solids per 100 mL mash as determined by density meter analysis. […] The mash thus prepared contained 30-32 g of dissolved solids/100 mL as determined by density meter analysis. […]
Each study was commenced by removing fermentors containing either normal gravity corn mash or very high gravity corn mash from 4° C. storage, connecting them to 30° C. water bath circulators and continually mixing the corn mash contents therein until the temperature of each mash was 30° C. […] Fermentation performance in all treatments was assessed by repeated sampling and analyses of the mashes during the fermentation periods as described in Example 1.

NC(N)=O [urea]
fermentation period required to complete fermentation (disappearance of dissolved solids): 48 h
